Results published in patent US12378519B2, “Microfluidic model of the blood brain barrier” (EMULATE, Inc., priority 2015, dated 2025).

Key:
Type in all cases: cell-based, human
[1] = test system: neurons seeded in chip
[2] = test system: BMECs seeded on a microfluidic device; assay: Paracellular permeability assay with Dextran-FITC on chip; conditions: TNF-alpha exposure, FIG. 14B
Procedure: Albumin or Dextran conjugated to a fluorescent probe (e.g., FITC or TRITC) are frequently used to monitor changes in leakage, and thus barrier function. In this case, Dextran-FITC, a green fluorescent molecule of 4 KDa, or sodium fluorescein (a 0.3 KDa molecule), was added to the bottom (“blood side”) channel. Paracellular permeability was calculated by measuring the permeability of the fluorescent molecule on the Top (“brain side”) channel. […] FIG. 14B involves TNF-alpha exposure, but the readout is membrane permeability as measured by Dextran-FITC.

[3] = test system: iBMEC barrier function; assay: TEER measurement on prototype TEER chips under flow; conditions: exposure of the chips to TNFa after flow, FIG. 14A
Procedure: Cells were plated on tall channel PDMS chips equipped with incorporated gold electrodes on each channel (see FIG. 13A). Post seeding of BMECs, transendothelial electrical resistance was measured by connecting the electrodes to an EVOM2 voltohmmeter (see FIG. 13B). […] The “damaged” chip was a failure due to the TEER-Chips being a prototype.
Higher TEER values generally indicate a tighter barrier, which is typically desirable for a blood-brain barrier.

## NC1=N[C@H](O)[C@H]2[C@H]3O[C@]4(O)O[C@@H]([C@@H](O)[C@@]2(N1)[C@@H]4O)[C@]3(O)CO [TTX, tetrodotoxin]
[1]
  neuronal activity (Ca2+ fluxes, dF/F): ablates this activity

## TNFa
[2]
  membrane permeability as measured by Dextran-FITC: increase in permeability
[3]
  iBMEC barrier function (TEER): weakening of barrier function
